pIC50: −log10 of the molar value. Like-named read-outs stand apart in the source and are kept apart here.

The source of these data is patent US6358921B1, “Antimicrobial peptide compositions and method” (priority 1996, dated 2002).

One series has as its system E. faecalis. Format: cell-based, Enterococcus faecalis. In outline: (§1)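 Antimicrobial activity is measured by a liquid-broth assay in LB at 37 °C overnight, starting from 5×10^5 CFU/mL. Values are minimal inhibitory concentrations, i.e. the lowest concentration that stops growth.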
The next series concerns P. aeruginosa H188. Format: cell-based, Pseudomonas aeruginosa. A digest of the protocol: as §1
Another series has as its system B. subtilis. The series is classed as cell-based, Bacillus subtilis. In outline: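 Liquid-broth microdilution: overnight LB cultures diluted and added to serial peptide dilutions at final 5×10^5 CFU/mL, incubated overnight at 37 °C. MIC is the lowest concentration inhibiting growth; C. albicans a clinical isolate, S. epidermidis clinical, C. xerosis environmental.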

Another series relates to E. coli DC2. Format: cell-based, Escherichia coli. The settings on record: DC2. A digest of the protocol:
(§2)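 Minimum inhibitory concentrations come from a broth rather than agar assay, using LB medium, a final inoculum of 5×10^5 CFU/mL and overnight incubation at 37 °C. Values are in μg/ml.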

A further series deals with S. aureus SAP0017. The series is classed as cell-based, Staphylococcus aureus. In outline:
(§3)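 Liquid-broth microdilution: overnight LB cultures at 37 °C, diluted to a final inoculum of 5×10^5 CFU/mL with serial peptide dilutions, incubated overnight at 37 °C. MIC (μg/ml) is the lowest concentration that inhibited growth. Therapeutic index is the concentration giving complete hemolysis at 4 h divided by the MIC.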

The next series has as its system S. aureus K147. The series is classed as cell-based, Staphylococcus aureus. A digest of the protocol: as §3
The subject of the next series is C. Albicans. The series is classed as cell-based, Candida albicans. A digest of the protocol: as §1
The subject of the next series is C. xeroses. Format: cell-based, Corynebacterium xerosis. A digest of the protocol: as §1
The subject of another series is S. epidermidis. Format: cell-based, Staphylococcus epidermidis. In outline: as §1
The next series relates to E. coli UB1005. The series is classed as cell-based, Escherichia coli. The conditions noted are these: UB1005. In outline: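 Liquid-broth rather than agar method. Organisms: clinical isolates (C. albicans, S. epidermidis), environmental C. xerosis, wild-type E. coli UB1005.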
For a further series, the system named is P. aeruginosa H187. The series is classed as cell-based, Pseudomonas aeruginosa. A digest of the protocol: as §2
A short description of series [1]: Displacement of dansyl-polymyxin from LPS. The series is classed as binding, P. aeruginosa. The settings on record: read-out: LPS binding affinity: peptide concentration to displace 50% of dansyl-polymyxin B from LPS; Tables 1, 4, 7. A digest of the protocol: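 Peptides titrated into 3 μg/mL P. aeruginosa LPS with 2.5 μM dansyl-polymyxin (~90% site saturation) in 5 mM sodium HEPES, pH 7.0; fluorescence decrease recorded. I50 (50% probe displacement) taken from the x-intercept of a double-reciprocal plot of percent inhibition versus inhibitor concentration.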

The next series has as its system S. typhinurium C610. Format: cell-based, Salmonella typhinurium. In outline:
as §1

Another series has as its system S. typhinurium C587. The series is classed as cell-based, Salmonella typhinurium. A digest of the protocol:
as §1

The next series deals with human erythrocytes. The series can be described thus: Hemolytic activity. Format: cell-based. The method, then:
Serial dilutions of the peptides in saline were prepared in round bottom microtitre plates using 100 μL volumes. Red blood cells were diluted with saline to 1/25 packed volume of cells and 50 μL added to each well. Plates were incubated with rocking at 37° C., and the concentration required for complete lysis determined visually after 4 h.

Take `CC(C)C[C@@H]1NC(=O)[C@H](CCCCN)NC(=O)[C@H](C(C)C)NC(=O)[C@H]2CCCN2C(=O)[C@@H](Cc2ccc(O)cc2)NC(=O)[C@H](CC(C)C)NC(=O)[C@H](CCCCN)NC(=O)[C@H](C(C)C)NC(=O)[C@H](CCCCN)NC(=O)[C@H](CC(C)C)NC(=O)[C@@H]2CCCN2C(=O)[C@@H](Cc2ccc(O)cc2)NC(=O)[C@H](C(C)C)NC(=O)[C@H](CCCCN)NC1=O` [GS14P14]: the “Minimum Inhibitory Concentration (activity)” value with E. faecalis is 6.2 µg/mL; with P. aeruginosa H188 (H188), 100 µg/mL; with B. subtilis it was more than 200 µg/mL; in the series on E. coli DC2, 4 µg/mL; with S. aureus SAP0017 it was more than 200 µg/mL; in the series with S. aureus K147, more than 200 µg/mL. For the same compound, the “Minimum Inhibitory Concentration (activity)” value in the series on C. Albicans was 25 µg/mL; with C. xeroses it was 1 µg/mL; in the series on S. epidermidis, 6.2 µg/mL; in the series on E. coli UB1005, 100 µg/mL; with P. aeruginosa H187 (H187), more than 200 µg/mL; in the series on S. typhinurium C610 it was more than 200 µg/mL. Also, in the series with S. typhinurium C587, the “Minimum Inhibitory Concentration (activity)” value was more than 200 µg/mL. Moreover, in series [1], the pIC50 is 4.70.

Regarding `CC(C)C[C@@H]1NC(=O)[C@H](CCCCN)NC(=O)[C@@H](C(C)C)NC(=O)[C@@H]2CCCN2C(=O)[C@@H](Cc2ccc(O)cc2)NC(=O)[C@H](CC(C)C)NC(=O)[C@H](CCCCN)NC(=O)[C@H](C(C)C)NC(=O)[C@H](CCCCN)NC(=O)[C@H](CC(C)C)NC(=O)[C@@H]2CCCN2C(=O)[C@@H](Cc2ccc(O)cc2)NC(=O)[C@H](C(C)C)NC(=O)[C@H](CCCCN)NC1=O` [GS14V1], the “Minimum Inhibitory Concentration (activity)” value in the series with E. faecalis was found to be 1.5 µg/mL; with P. aeruginosa H188 (H188), 3.1 µg/mL; in the series with B. subtilis, 50 µg/mL; with E. coli DC2 it was 3.1 µg/mL; in the series with S. aureus SAP0017, 50 µg/mL; in the series on S. aureus K147, 100 µg/mL. Moreover, the “Minimum Inhibitory Concentration (activity)” value in the series on C. Albicans came to 5 µg/mL; in the series with C. xeroses it was 1.5 µg/mL; with S. epidermidis, 3.1 µg/mL; with E. coli UB1005, 6.2 µg/mL; with P. aeruginosa H187 (H187), 60 µg/mL; with S. typhinurium C610, 6.2 µg/mL. In addition, the “Minimum Inhibitory Concentration (activity)” value in the series on S. typhinurium C587 was found to be 50 µg/mL. In [1], the pIC50 was 4.39.

For `CC(C)C[C@@H]1NC(=O)[C@H](CCCCN)NC(=O)[C@H](C(C)C)NC(=O)[C@@H]2CCCN2C(=O)[C@H](Cc2ccc(O)cc2)NC(=O)[C@H](CC(C)C)NC(=O)[C@H](CCCCN)NC(=O)[C@H](C(C)C)NC(=O)[C@H](CCCCN)NC(=O)[C@H](CC(C)C)NC(=O)[C@@H]2CCCN2C(=O)[C@@H](Cc2ccc(O)cc2)NC(=O)[C@H](C(C)C)NC(=O)[C@H](CCCCN)NC1=O` [GS14Y13], the “Minimum Inhibitory Concentration (activity)” value is 3.1 µg/mL in the series with E. faecalis; 100 µg/mL in the series on P. aeruginosa H188 (H188); more than 200 µg/mL in the series on B. subtilis; 3.1 µg/mL in the series with E. coli DC2; more than 200 µg/mL in the series on S. aureus SAP0017; more than 200 µg/mL in the series on S. aureus K147. Further, the “Minimum Inhibitory Concentration (activity)” value in the series on C. Albicans is 25 µg/mL; in the series with C. xeroses it was 1 µg/mL; with S. epidermidis, 9 µg/mL; with E. coli UB1005 it was 100 µg/mL; with P. aeruginosa H187 (H187), more than 200 µg/mL; in the series with S. typhinurium C610, more than 200 µg/mL. For the same compound, the “Minimum Inhibitory Concentration (activity)” value in the series with S. typhinurium C587 was more than 200 µg/mL. Also, the pIC50 in [1] was 4.62.

Take `CC(C)C[C@@H]1NC(=O)[C@H](CCCCN)NC(=O)[C@H](C(C)C)NC(=O)[C@H](CCCCN)NC(=O)[C@@H]2CCCN2C(=O)[C@@H](Cc2ccc(O)cc2)NC(=O)[C@H](CCCCN)NC(=O)[C@H](CC(C)C)NC(=O)[C@H](CCCCN)NC(=O)[C@@H](C(C)C)NC(=O)[C@H](CCCCN)NC(=O)[C@@H]2CCCN2C(=O)[C@@H](Cc2ccc(O)cc2)NC(=O)[C@H](CCCCN)NC1=O` [GS14invV2]: the “Minimum Inhibitory Concentration (activity)” value in the series on E. faecalis was more than 200 µg/mL; with P. aeruginosa H188 (H188) it was 9 µg/mL; with B. subtilis it was more than 200 µg/mL; with E. coli DC2, 50 µg/mL; in the series on S. aureus K147, more than 200 µg/mL; with C. Albicans, 200 µg/mL. Further, the “Minimum Inhibitory Concentration (activity)” value was 6.2 µg/mL in the series on C. xeroses; 100 µg/mL in the series on S. epidermidis; 25 µg/mL in the series with E. coli UB1005; 9 µg/mL with P. aeruginosa H187 (H187); 37 µg/mL in the series with S. typhinurium C610; 200 µg/mL with S. typhinurium C587. The “Hemolytic activity: peptide concentration for 100% lysis of human erythrocytes” value in the series on human erythrocytes came to 800 µg/mL. In addition, the pIC50 in [1] is 4.15.

Consider `CC(C)C[C@@H]1NC(=O)[C@H](CCCCN)NC(=O)[C@H](C(C)C)NC(=O)[C@@H]2CCCN2C(=O)[C@@H](Cc2ccc(O)cc2)NC(=O)[C@H](CCCCN)NC(=O)[C@H](CC(C)C)NC(=O)[C@H](C(C)C)NC(=O)[C@H](CCCCN)NC(=O)[C@H](CC(C)C)NC(=O)[C@@H]2CCCN2C(=O)[C@@H](Cc2ccc(O)cc2)NC(=O)[C@H](CCCCN)NC(=O)[C@H](C(C)C)NC1=O` [GS14na], for which the “Minimum Inhibitory Concentration (activity)” value with E. faecalis (E. faecalis) was 200 µg/mL; in the series with P. aeruginosa H188 (P. aeruginosa H188) it was 18 µg/mL; with B. subtilis (B. subtilis), more than 200 µg/mL; in the series with E. coli DC2 it was 62 µg/mL; with S. aureus SAP0017 it was 200 µg/mL; with S. aureus K147, more than 200 µg/mL. The “Minimum Inhibitory Concentration (activity)” value came out at 100 µg/mL in the series with C. Albicans (C. Albicans); 1.5 µg/mL in the series on C. xeroses (C. xeroses); 50 µg/mL in the series with S. epidermidis (S. epidermidis); 37 µg/mL with E. coli UB1005; 75 µg/mL in the series with P. aeruginosa H187 (P. aeruginosa H187); 12.5 µg/mL with S. typhinurium C610. The “Minimum Inhibitory Concentration (activity)” value in the series on S. typhinurium C587 is 100 µg/mL. Besides, in the series with human erythrocytes, the “Hemolytic activity: peptide concentration for 100% lysis of human erythrocytes” value is more than 800 µg/mL.
